Source: patent US6274715A, “Tricyclic erythromycin derivatives” (priority 1997, dated 2001)
≈ marks a conversion by molar mass, not a printed value.

How the values were obtained:
Type in all cases: cell-based
[1] = tested on: STAPHYLOCOCCUS AUREUS ATCC 6538P; assay: In vitro antibacterial activity, MIC, BHI agar dilution; conditions: S. aureus ATCC 6538P, 35-37° C., 20 to 24 hours, unit assumed
ESCHERICHIA COLI SS = assay: as above; conditions: E. coli SS, unit assumed
[2] = tested on: ACINETOBACTER CALCOACETICUS CMX 669; assay: as above; conditions: A. calcoaceticus CMX 669, unit assumed
CANDIDA ALBICANS CCH 442 = assay: as above; conditions: C. albicans CCH 442, unit assumed
[3] = tested on: PSEUDOMONAS AERUGINOSA DPHD-5263; assay: as above; conditions: P. aeruginosa DPHD-5263, unit assumed
[4] = tested on: KLEBSIELLA PNEUMONIAE ATCC 8045; assay: as above; conditions: K. pneumoniae ATCC 8045, unit assumed
M[…] ATCC 9341 = assay: as above; conditions: M. luteus ATCC 9341, unit assumed
How it was run: (§1)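 BHI agar dilution: twelve plates with successive compound dilutions, inoculated by replicator with 1:100 culture dilutions (1:10 for slow growers such as Micrococcus and Streptococcus), 20 to 24 hours at 35-37° C. MIC was the lowest concentration giving no growth, slight haze or sparse isolated colonies versus drug-free control; erythromycin A as class reference.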

STR[…] 508 = assay: as above; conditions: S. agalactiae CMX 508, unit assumed
How it was run: as §1

EN[…] ATCC 8043 = assay: as above; conditions: E. faecium ATCC 8043, unit assumed
How it was run: as §1

M[…] ATCC 4698 = assay: as above; conditions: M. luteus ATCC 4698, unit assumed
How it was run: as §1

[5] = tested on: STREPTOCOCCUS PYOGENES 930; assay: as above; conditions: S. pyogenes 930, unit assumed
[6] = tested on: STAPHYLOCOCCUS AUREUS CMX 553; assay: as above; conditions: S. aureus CMX 553, unit assumed
ESCHERICHIA COLI DC-2 = assay: as above; conditions: E. coli DC-2, unit assumed
[7] = tested on: PSEUDOMONAS AERUGINOSA 5007; assay: as above; conditions: P. aeruginosa 5007, unit assumed
ESCHERICHIA COLI JUHL = conditions: E. coli JUHL; BHI agar; unit assumed
[8] = tested on: STAPHYLOCOCCUS AUREUS CMX 642A; assay: In vitro antibacterial activity, MIC, BHI agar dilution; conditions: S. aureus CMX 642A, unit assumed
[9] = tested on: ENTEROBACTER AEROGENES ATCC 13048; assay: as above; conditions: E. aerogenes ATCC 13048, unit assumed
[10] = tested on: STAPHYLOCOCCUS AUREUS 1775; assay: as above; conditions: S. aureus 1775, unit assumed
[11] = tested on: STREPTOCOCCUS PYOGENES EES61; assay: as above; conditions: S. pyogenes EES61, unit assumed
ESCHERICHIA COLI KNK 437 = conditions: E. coli KNK 437; BHI agar; unit assumed
PSEUDOMONAS CEPACIA 296I = assay: In vitro antibacterial activity, MIC, BHI agar dilution; conditions: P. cepacia 296I, unit assumed
[12] = tested on: STAPHYLOCOCCUS AUREUS NCTC10649M; assay: as above; conditions: S. aureus NCTC10649M, unit assumed
[13] = tested on: MYCOBACTERIUM SMEGMATIS ATCC 114; assay: as above; conditions: M. smegmatis ATCC 114, unit assumed
[14] = tested on: STAPHYLOCOCCUS AUREUS A-5278; assay: as above; conditions: S. aureus A-5278, unit assumed
[15] = tested on: PSEUDOMONAS AERUGINOSA DPHD-2862; assay: as above; conditions: P. aeruginosa DPHD-2862, unit assumed
[16] = tested on: PSEUDOMONAS AERUGINOSA K799/61; assay: as above; conditions: P. aeruginosa K799/61, unit assumed
[17] = tested on: STREPTOCOCCUS BOVIS A-5169; assay: as above; conditions: S. bovis A-5169, unit assumed
[18] = tested on: STAPHYLOCOCCUS EPIDERMIDIS 3519; conditions: S. epidermidis 3519; BHI agar; unit assumed
[19] = tested on: PSEUDOMONAS AERUGINOSA BMH10; assay: In vitro antibacterial activity, MIC, BHI agar dilution; conditions: P. aeruginosa BMH10, unit assumed
ESCHERICHIA COLI H560 = assay: as above; conditions: E. coli H560, unit assumed
[20] = tested on: PROVIDENCIA STUARTII CMX 640; conditions: P. stuartii CMX 640; BHI agar; unit assumed
[21] = tested on: STAPHYLOCOCCUS AUREUS A5177; assay: In vitro antibacterial activity, MIC, BHI agar dilution
[22] = tested on: PSEUDOMONAS AERUGINOSA K799/WT; assay: as above; conditions: P. aeruginosa K799/WT, unit assumed
[23] = tested on: STREPTOCOCCUS PYOGENES PIU 2548; assay: as above; conditions: S. pyogenes PIU 2548, unit assumed

CCC1OC(=O)C(C)C(=O)C(C)C(OC2OC(C)CC(N(C)C)C2O)C(C)(OC)CC(C)C2=NC(CN)CN3C(=O)OC1(C)C3C2C (centres unmarked) [Example 16]
MIC [1]: 0.2 µg/mL (≈ 0.3 µM)
MIC (ESCHERICHIA COLI SS): 0.1 µg/mL (≈ 0.15 µM)
MIC [2]: 12.5 µg/mL (≈ 18.7 µM)
MIC (CANDIDA ALBICANS CCH 442): > 100 µg/mL
MIC [3]: > 100 µg/mL
MIC [4]: 12.5 µg/mL (≈ 18.7 µM)
MIC (M[…] ATCC 9341): 0.02 µg/mL (≈ 0.03 µM)
MIC (STR[…] 508): 0.05 µg/mL (≈ 0.075 µM)
MIC (EN[…] ATCC 8043): 0.2 µg/mL (≈ 0.3 µM)
MIC (M[…] ATCC 4698): 0.2 µg/mL (≈ 0.3 µM)
MIC [5]: > 100 µg/mL
MIC [6]: 0.39 µg/mL (≈ 0.585 µM)
MIC (ESCHERICHIA COLI DC-2): 12.5 µg/mL (≈ 18.7 µM)
MIC [7]: > 100 µg/mL
MIC (ESCHERICHIA COLI JUHL): 12.5 µg/mL (≈ 18.7 µM)
MIC [8]: 0.2 µg/mL (≈ 0.3 µM)
MIC [9]: 12.5 µg/mL (≈ 18.7 µM)
MIC [10]: > 100 µg/mL
MIC [11]: 0.01 µg/mL (≈ 0.015 µM)
MIC (ESCHERICHIA COLI KNK 437): 12.5 µg/mL (≈ 18.7 µM)
MIC (PSEUDOMONAS CEPACIA 296I): > 100 µg/mL
MIC [12]: 0.2 µg/mL (≈ 0.3 µM)
MIC [13]: 1.56 µg/mL (≈ 2.34 µM)
MIC [14]: > 100 µg/mL
MIC [15]: > 100 µg/mL
MIC [16]: 0.39 µg/mL (≈ 0.585 µM)
MIC [17]: 0.02 µg/mL (≈ 0.03 µM)
MIC [18]: 0.2 µg/mL (≈ 0.3 µM)
MIC [19]: 50 µg/mL (≈ 75 µM)
MIC (ESCHERICHIA COLI H560): 6.2 µg/mL (≈ 9.3 µM)
MIC [20]: > 100 µg/mL
MIC ([21]; S. aureus A5177, unit assumed): 0.39 µg/mL (≈ 0.585 µM)
MIC [22]: 100 µg/mL (≈ 150 µM)

CC[C@H]1OC(=O)[C@H](C)C(=O)[C@H](C)[C@@H](O[C@@H]2O[C@H](C)C[C@H](N(C)C)[C@H]2O)[C@](C)(OC)C[C@@H](C)C2=N[C@H](COCc3ccc(C#N)cc3)CN3C(=O)O[C@@]1(C)[C@H]3[C@H]2C [Example 74]
MIC [1]: 0.2 µg/mL (≈ 0.255 µM)
MIC (ESCHERICHIA COLI SS): 0.39 µg/mL (≈ 0.498 µM)
MIC [2]: 50 µg/mL (≈ 63.9 µM)
MIC (CANDIDA ALBICANS CCH 442): > 100 µg/mL
MIC [3]: > 100 µg/mL
MIC [4]: > 100 µg/mL
MIC (M[…] ATCC 9341): 0.02 µg/mL (≈ 0.0255 µM)
MIC (STR[…] 508): 0.02 µg/mL (≈ 0.0255 µM)
MIC (EN[…] ATCC 8043): 0.02 µg/mL (≈ 0.0255 µM)
MIC (M[…] ATCC 4698): 0.39 µg/mL (≈ 0.498 µM)
MIC [5]: > 100 µg/mL
MIC [6]: 0.1 µg/mL (≈ 0.128 µM)
MIC (ESCHERICHIA COLI DC-2): 100 µg/mL (≈ 128 µM)
MIC [7]: > 100 µg/mL
MIC (ESCHERICHIA COLI JUHL): > 100 µg/mL
MIC [8]: 0.2 µg/mL (≈ 0.255 µM)
MIC [9]: > 100 µg/mL
MIC [10]: > 100 µg/mL
MIC [11]: ≤ 0.005 µg/mL
MIC (ESCHERICHIA COLI KNK 437): > 100 µg/mL
MIC (PSEUDOMONAS CEPACIA 296I): 50 µg/mL (≈ 63.9 µM)
MIC [12]: 0.1 µg/mL (≈ 0.128 µM)
MIC [13]: 0.39 µg/mL (≈ 0.498 µM)
MIC [14]: > 100 µg/mL
MIC [15]: > 100 µg/mL
MIC [16]: 3.1 µg/mL (≈ 3.96 µM)
MIC [17]: ≤ 0.005 µg/mL
MIC [18]: 0.2 µg/mL (≈ 0.255 µM)
MIC [19]: > 100 µg/mL
MIC (ESCHERICHIA COLI H560): 100 µg/mL (≈ 128 µM)
MIC [20]: > 100 µg/mL
MIC ([21]; S. aureus A5177): 0.1 µg/mL (≈ 0.128 µM)
MIC [22]: 100 µg/mL (≈ 128 µM)

C#CCN1CC2N=C3[C@H](C)C[C@@](C)(OC)[C@H](O[C@@H]4O[C@H](C)C[C@H](N(C)C)[C@H]4O)[C@@H](C)C(=O)[C@@H](C)C(=O)O[C@H](CC)[C@@]4(C)OC(=O)N(C2C1)[C@@H]4[C@H]3C (some centres unmarked) [Example 117]
MIC [1]: 0.78 µg/mL (≈ 1.09 µM)
MIC [23]: 0.78 µg/mL (≈ 1.09 µM)
MIC [2]: > 100 µg/mL
MIC (CANDIDA ALBICANS CCH 442): > 100 µg/mL
MIC [3]: > 100 µg/mL
MIC [4]: > 100 µg/mL
MIC (M[…] ATCC 9341): 0.2 µg/mL (≈ 0.279 µM)
MIC (STR[…] 508): 0.05 µg/mL (≈ 0.0697 µM)
MIC (EN[…] ATCC 8043): 0.2 µg/mL (≈ 0.279 µM)
MIC (M[…] ATCC 4698): 0.39 µg/mL (≈ 0.544 µM)
MIC [5]: > 100 µg/mL
MIC [6]: 0.78 µg/mL (≈ 1.09 µM)
MIC (ESCHERICHIA COLI DC-2): > 100 µg/mL
MIC [7]: > 100 µg/mL
MIC (ESCHERICHIA COLI JUHL): > 100 µg/mL
MIC [8]: 0.78 µg/mL (≈ 1.09 µM)
MIC [9]: > 100 µg/mL
MIC [10]: > 100 µg/mL
MIC (ESCHERICHIA COLI KNK 437): > 100 µg/mL
MIC (PSEUDOMONAS CEPACIA 296I): > 100 µg/mL
MIC [12]: 0.78 µg/mL (≈ 1.09 µM)
MIC [13]: 3.1 µg/mL (≈ 4.32 µM)
MIC [14]: > 100 µg/mL
MIC [15]: > 100 µg/mL
MIC [16]: 3.1 µg/mL (≈ 4.32 µM)
MIC [17]: 0.05 µg/mL (≈ 0.0697 µM)
MIC [18]: 1.56 µg/mL (≈ 2.18 µM)
MIC [19]: > 100 µg/mL
MIC (ESCHERICHIA COLI H560): 50 µg/mL (≈ 69.7 µM)
MIC [20]: > 100 µg/mL
MIC ([21]; S. aureus A5177, unit assumed): 0.78 µg/mL (≈ 1.09 µM)
MIC [22]: > 100 µg/mL
